One assay has as its target T1, human TRPM8 receptor (Homo sapiens, UniProt Q7Z2W7).
T1 construct: expressed in transfected cells; host or cells: HEK293, stably transfected, tetracycline-inducible expression
Put plainly: Assay on TRPM8 modulators: Ca2+-sensitive dye (Fluo-4) fluorescence in HEK293-TRPM8 test cells. The class given is cell-based. Set-up: relative TRPM8 activation: concentration or dose not given beside the values. To be noted: for EC50: HEK293-TRPM8 cells. The method in brief: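 HEK293 cells stably carrying tetracycline-inducible human TRPM8 (1 µg/ml tetracycline), loaded next day with Fluo-4 (30 min 37 °C, 30 min RT). Compounds tested in triplicate at 0.1–200 µM (≤2% DMSO) and fluorescence read at 485/520 nm. EC50 from 4- or 5-parameter logistic fits of 6–10 concentrations.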

A short description of assay [1]: Sensory tasting of cooling intensity by trained panelists, WS-3 as reference. The class given is in vivo, human. The settings on record: cooling intensity, 5 ppm in 5% sugar solution, rated after one minute, scale 1 (very weak) to 9 (very strong). On the procedure: In order to quantify the cooling effect, comparative tests are carried out using menthane-3-carboxylic acid-N-ethylamide as a reference. For these comparative tests, the skilled person replaces the compound or compounds to be used according to the invention with menthane-3-carboxylic acid-N-ethylamide (also referred to as WS-3). Then the intensities of the cooling effects of the respective compounds or active ingredients are sensory evaluated by trained panelists (n=10 to 11) as described below and compared with each other.
The cooling intensity was tested as follows: Test solutions with 5 ppm of the compounds according to the invention were each tasted in a 5% sugar solution as well as a corresponding solution with 30 ppm of the reference substance WS-3. […] The panelists tasted the corresponding test solutions for exactly 40 seconds, rinsing the entire mouth with the corresponding test solution and then spitting out the sample or reference solution. Following the tasting, the test subjects rated the respective cooling intensity after one minute according to a scale of 1 (very weak) to 9 (very strong).

From patent US20250163006A1, “New Coolants, and Preparations Containing Same” (Symrise AG, priority 2022, published 2025) come the findings set out here.

Like-named read-outs stand apart in the source and are kept apart here.

T1 sequence (Q7Z2W7 whole entry): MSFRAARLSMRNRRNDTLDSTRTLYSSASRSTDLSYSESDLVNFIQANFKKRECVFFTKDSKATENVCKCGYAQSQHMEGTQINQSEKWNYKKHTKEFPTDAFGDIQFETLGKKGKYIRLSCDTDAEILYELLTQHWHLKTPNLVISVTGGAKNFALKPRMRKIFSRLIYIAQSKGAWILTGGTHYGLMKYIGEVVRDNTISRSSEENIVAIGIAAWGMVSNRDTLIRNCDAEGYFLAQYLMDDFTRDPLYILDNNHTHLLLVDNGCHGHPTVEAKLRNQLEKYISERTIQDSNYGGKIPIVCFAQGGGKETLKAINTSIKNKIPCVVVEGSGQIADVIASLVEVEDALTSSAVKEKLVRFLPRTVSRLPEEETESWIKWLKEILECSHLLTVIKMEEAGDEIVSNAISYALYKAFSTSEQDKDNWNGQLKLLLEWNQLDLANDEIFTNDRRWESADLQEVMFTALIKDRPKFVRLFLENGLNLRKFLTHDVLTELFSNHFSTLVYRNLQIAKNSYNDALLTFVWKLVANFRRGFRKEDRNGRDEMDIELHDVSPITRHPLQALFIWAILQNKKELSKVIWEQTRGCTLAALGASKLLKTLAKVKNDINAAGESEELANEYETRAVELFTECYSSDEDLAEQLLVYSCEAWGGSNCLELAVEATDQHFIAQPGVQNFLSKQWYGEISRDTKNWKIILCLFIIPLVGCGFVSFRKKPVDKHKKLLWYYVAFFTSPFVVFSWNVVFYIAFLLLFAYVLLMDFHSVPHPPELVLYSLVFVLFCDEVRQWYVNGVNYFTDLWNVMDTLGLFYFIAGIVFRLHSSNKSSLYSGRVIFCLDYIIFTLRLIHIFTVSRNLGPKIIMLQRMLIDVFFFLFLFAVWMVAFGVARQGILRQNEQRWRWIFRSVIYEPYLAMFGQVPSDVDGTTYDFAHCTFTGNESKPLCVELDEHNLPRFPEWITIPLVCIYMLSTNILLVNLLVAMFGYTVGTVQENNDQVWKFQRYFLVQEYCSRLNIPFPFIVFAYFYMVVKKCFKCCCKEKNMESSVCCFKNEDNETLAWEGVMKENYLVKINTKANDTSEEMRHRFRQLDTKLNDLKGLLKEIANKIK

`CCNC(=O)CCc1nc(-c2ccccc2)c(-c2ccccc2)o1` [Compound A-07, 3-(4,5-diphenyloxazol-2-yl)-N-ethyl-propanamide]: the concentration giving a half-maximal response (EC50) on human TRPM8 receptor (TRPM8 activation, 6 to 10 concentrations, logistic curve fitting, read-out: EC50 value) is at most 1000 nM; at human TRPM8 receptor (Table 6, read-out: TRPM8 EC50) it was 150 nM; at human TRPM8 receptor (Table 8, read-out: TRPM8 EC50), 150 nM. Also, the Sensory evaluation in assay [1] (Table 6) and in assay [1] (Table 10) was 2.67 throughout.

Regarding `CCSc1nc(-c2ccccc2)c(-c2ccccc2)o1` [Compound A-55, 2-ethylsulfanyl-4,5-diphenyl-oxazole], the “relative TRPM8 activation” value at human TRPM8 receptor (HEK293 cells recombinantly expressing human TRPM8) worked out at 1%. The same molecule registered a Sensory evaluation in assay [1] (Table 6) of 0.59.
